# Counter-ions that a name gives are not always drawn.
row,SMILES,melting point
1,"CCOC(=O)c1cccc(C(OC2CCN(C)CC2)c2nc3ccccc3s2)c1 (stereo not drawn) (as salt: oxalate) [Example 206, 3-[benzothiazol-2-yl(1-methylpiperidin-4-yloxy)methyl]benzoic acid ethyl ester]",104 °C
2,"CN1CCC(OC(c2cccc(OCC3CCCCC3)c2)c2nc3ccccc3s2)CC1 (stereo not drawn) (as salt: oxalate) [Example 285, 2-[(3-Cyclohexylmethoxyphenyl)(1-methylpiperidin-4-yloxy)methyl]benzothiazole]",101 °C
3,"CN1CCC(OC(c2cccc(C#CCCCCN)c2)c2nc3ccccc3n2C)CC1 (stereo not drawn) (as salt: oxalate) [Example 480, 6-{3-[(1-methyl-1H-benzimidazol-2-yl)(1-methylpiperidin-4-yloxy)methyl]phenyl}hex-5-ynylamine]",113 °C
4,"Cc1cc(C(NC2CCN(C)CC2)c2nc3ccccc3s2)ccc1F (stereo not drawn) (as salt: oxalate) [Example 35, [benzothiazol-2-yl(4-fluoro-3-methyl-phenyl)methyl](1-methylpiperidin-4-yl)amine]",160 °C
5,"CN1CCC(OC(c2cccc(OCCCF)c2)c2nc3ccccc3s2)CC1 (stereo not drawn) (as salt: oxalate) [Example 176, 2-[[3-(3-fluoropropoxy)phenyl](1-methylpiperidin-4-yloxy)methyl]benzothiazole]",72 °C
6,"CN1CCC(OC(c2cccc(OCC3CCCN(C)C3)c2)c2nc3ccccc3s2)CC1 (stereo not drawn) (as salt: oxalate) [Example 379, 2-[[3-(1-methylpiperidin-3-ylmethoxy)phenyl](1-methylpiperidin-4-yloxy)methyl]benzothiazole]",76 °C
7,"CN1CCC(OC(c2cccc(OC3CNC3)c2)c2nc3ccccc3s2)CC1 (stereo not drawn) (as salt: oxalate) [Example 402, 2-[[3-(azetidin-3-yloxy)phenyl](1-methylpiperidin-4-yloxy)methyl]benzothiazole]",81 °C
8,"CN1CCC(OC(c2cccc(OCCCC(F)(F)F)c2)c2nc3ccccc3s2)CC1 (stereo not drawn) (as salt: oxalate) [Example 169, 2-{(1-methylpiperidin-4-yloxy)[3-(4,4,4-trifluoro-butoxy)phenyl]methyl}benzothiazole]",115 °C
9,"CN1CCC(OC(c2ccc(F)cc2)c2nc3ccccc3s2)CC1 (stereo not drawn) (as salt: oxalate) [Example 3, 2-[(4-fluorophenyl)(1-methylpiperidin-4-yloxy)methyl]benzothiazole]",192 °C
10,"CN1CCC(OC(c2cccc(OCC=CCN)c2)c2nc3ccccc3s2)CC1 (stereo not drawn) (as salt: oxalate) [Example 431, 4-{3-[benzothiazol-2-yl(1-methylpiperidin-4-yloxy)methyl]phenoxy}but-2-enylamine]",117 °C
11,"CC(C)Oc1cccc(C(NC2CCN(C)CC2)c2nc3ccccc3s2)c1 (stereo not drawn) (as salt: oxalate) [Example 88, [benzothiazol-2-yl(3-isopropoxyphenyl)methyl](1-methylpiperidin-4-yl)amine]",96 °C
12,CCOCCn1c(C(OC2CCN(C)CC2)c2cccc(C#CCCCCN)c2)nc2ccccc21 (stereo not drawn) (as salt: oxalate) [Example 500],103 °C
13,"CN1CCC(OC(c2cccc(OCCNCC(=O)OC(C)(C)C)c2)c2nc3ccccc3s2)CC1 (stereo not drawn) (as salt: oxalate) [Example 370, (2-{3-[benzothiazol-2-yl(1-methylpiperidin-4-yloxy)methyl]phenoxy}ethylamino)acetic acid tert-butyl ester]",136 °C
14,"Cc1cccc(C(NC2CCN(C)CC2)c2nc3ccccc3[nH]2)c1 (stereo not drawn) (as salt: oxalate) [Example 84, [(1H-benzimidazol-2-yl)(m-tolyl)methyl](1-methylpiperidin-4-yl)amine]",132 °C
15,"CC(=O)OC1CCN(c2cccc(C(OC3CCN(C)CC3)c3nc4ccccc4s3)c2)CC1 (stereo not drawn) (as salt: oxalate) [Example 413, acetic acid 1-{3-[benzothiazol-2-yl(1-methylpiperidin-4-yloxy)methyl]phenyl}piperidin-4-yl ester]",74 °C
16,"CN1CCC(OC(c2cccc(Oc3cccnc3)c2)c2nc3ccccc3s2)CC1 (stereo not drawn) (as salt: oxalate) [Example 448, 2-{(1-methylpiperidin-4-yloxy)[3-(pyridin-3-yloxy)phenyl]methyl}benzothiazole]",78 °C
17,"CCCCOc1cccc(C(NC2CCN(C)CC2)c2nc3ccccc3[nH]2)c1 (stereo not drawn) (as salt: oxalate) [Example 69, [(1H-benzimidazol-2-yl)(3-butoxyphenyl)methyl](1-methylpiperidin-4-yl)amine]",137 °C
18,Cc1ccc(F)c(C(OC2CCN(C)CC2)c2nc3ccccc3[nH]2)c1 (stereo not drawn) (as salt: oxalate) [Example 490],132 °C
19,"CN1CCC(OC(c2ccc3occc3c2)c2nc3ccccc3s2)CC1 (stereo not drawn) (as salt: oxalate) [Example 46, 2-[benzofuran-5-yl(1-methylpiperidin-4-yloxy)methyl]benzothiazole]",153 °C
20,"COCCOc1cccc(C(OC2CCN(C)CC2)c2nc3ccccc3s2)c1 (stereo not drawn) (as salt: oxalate) [Example 277, 2-[[3-(2-methoxyethoxy)phenyl](1-methylpiperidin-4-yloxy)methyl]benzothiazole]",80 °C

row,SMILES,melting point
1,"CN1CCC(OC(c2cccc(-c3cccc(F)c3)c2)c2nc3ccccc3[nH]2)CC1 (stereo not drawn) (as salt: oxalate) [Example 109, 2-[(3′-fluoro-biphenyl-3-yl)(1-methylpiperidin-4-yloxy)methyl]-1H-benzimidazole]",120 °C
2,CN1CCC(OC(c2cccc(OC3CC4CNCC4C3)c2)c2nc3ccccc3s2)CC1 (stereo not drawn) (as salt: oxalate) [Example 466],70 °C
3,"Cc1ccc2sc(C(OC3CCN(C)CC3)c3ccccc3)nc2c1 (stereo not drawn) (as salt: oxalate) [Example 29, 5-methyl-2-[(1-methylpiperidin-4-yloxy)phenylmethyl]benzothiazole]",175 °C
4,"CN1CCC(NC(c2cccc(OCCOc3ccccc3)c2)c2nc3ccccc3[nH]2)CC1 (stereo not drawn) (as salt: oxalate) [Example 106, {(1H-benzimidazol-2-yl)[3-(2-phenoxyethoxy)phenyl]methyl}(1-methylpiperidin-4-yl)amine]",140 °C
5,"CN1CCC(OC(c2nc3ccccc3[nH]2)c2ccc(F)cc2F)CC1 (stereo not drawn) (as salt: oxalate) [Example 221, 2-[(2,4-difluorophenyl)(1-methylpiperidin-4-yloxy)methyl]-1H-benzimidazole]",106 °C
6,CN1CCC(OC(c2nc3cccc(F)c3[nH]2)c2cc(OC(F)(F)F)ccc2F)CC1 (stereo not drawn) (as salt: oxalate) [Example 529],135 °C
7,"CN1CCC(OC(c2cccc(CCCCCNC(=N)N)c2)c2nc3ccccc3s2)CC1 (stereo not drawn) (as salt: hydrochloride) [Example 365, N-(5-{3-[benzothiazol-2-yl(1-methylpiperidin-4-yloxy)methyl]phenyl}pentyl)guanidine]",90 °C
8,"CN1CCC(OC(c2nc3ccccc3o2)c2cc(OC(F)(F)F)ccc2F)CC1 (stereo not drawn) (as salt: oxalate) [Example 525, 2-[(2-fluoro-5-trifluoromethoxyphenyl)(1-methylpiperidin-4-yloxy)methyl]benzoxazole]",103 °C
9,"CN1CCC(NC(c2cccc(OCCCC3(C)OCCO3)c2)c2nc3ccccc3[nH]2)CC1 (stereo not drawn) (as salt: oxalate) [Example 174, ((1H-benzimidazol-2-yl)-{3-[3-(2-methyl-[1,3]dioxolan-2-yl)-propoxy]phenyl}methyl)(1-methylpiperidin-4-yl)amine]",120 °C
10,"CN1CCC(OC(c2cccc(Oc3ccccc3)c2)c2nc3ccccc3s2)CC1 (stereo not drawn) (as salt: oxalate) [Example 28, 2-[(1-methylpiperidin-4-yloxy)(3-phenoxy-phenyl)methyl]benzothiazole]",92 °C
11,"CN1CCC(OC(c2cccc(OCC3CCNCC3)c2)c2nc3ccccc3s2)CC1 (stereo not drawn) (as salt: oxalate) [Example 377, 2-{(1-methylpiperidin-4-yloxy)[3-(piperidin-4-ylmethoxy)phenyl]methyl}benzothiazole]",90 °C
12,"CN1CCC(NC(c2cccc(OCc3ccc(F)cc3)c2)c2nc3ccccc3[nH]2)CC1 (stereo not drawn) (as salt: oxalate) [Example 103, {(1H-benzimidazol-2-yl)[3-(4-fluorobenzyloxy)phenyl]methyl}(1-methylpiperidin-4-yl)amine]",140 °C
13,"COC(=O)c1cccc(C(OC2CCN(C)CC2)c2nc3ccccc3s2)c1 (stereo not drawn) (as salt: oxalate) [Example 199, 3-[benzothiazol-2-yl(1-methylpiperidin-4-yloxy)methyl]benzoic acid methyl ester]",93 °C
14,"CN1CCC(NC(c2cccc(F)c2)c2nc3ccccc3[nH]2)CC1 (stereo not drawn) (as salt: oxalate) [Example 74, [(1H-benzimidazol-2-yl)(3-fluorophenyl)methyl](1-methylpiperidin-4-yl)amine]",155 °C
15,"CCCOc1cccc(C(OC2CCN(C)CC2)c2nc3ccccc3s2)c1 (stereo not drawn) (as salt: hydrochloride) [Example 26, 2-[(1-methylpiperidin-4-yloxy)(3-propoxy-phenyl)methyl]benzothiazole]",59 °C
16,"COc1cccc(COc2cccc(C(NC3CCN(C)CC3)c3nc4ccccc4[nH]3)c2)c1 (stereo not drawn) (as salt: oxalate) [Example 125, {(1H-benzimidazol-2-yl)[3-(3-methoxybenzyloxy)phenyl]methyl}(1-methylpiperidin-4-yl)amine]",135 °C
17,"CN1CCC(OC(c2cccc(SCCCN)c2)c2nc3ccccc3s2)CC1 (stereo not drawn) (as salt: oxalate) [Example 314, 3-{3-[benzothiazol-2-yl(1-methylpiperidin-4-yloxy)methyl]phenylsulfanyl}propylamine]",99 °C
18,"COc1cc(F)cc(C(OC2CCN(C)CC2)c2nc3ccccc3s2)c1 (stereo not drawn) (as salt: oxalate) [Example 40, 2-[(3-fluoro-5-methoxyphenyl)(1-methylpiperidin-4-yloxy)methyl]benzothiazole]",145 °C
19,"CN1CCC(OC(c2cccc(OCCCCCNCCCCN)c2)c2nc3ccccc3[nH]2)CC1 (stereo not drawn) (as salt: oxalate) [Example 419, N1-(5-{3-[(1H-benzimidazol-2-yl)(1-methylpiperidin-4-yloxy)methyl]phenoxy}pentyl)butane-1,4-diamine]",162 °C

# — US8802664B2 (Bioproject, priority 2010, dated 2014)
